Measured values as given in patent publication US6339045B1, “N-(unsubstituted or substituted)-4-substituted-6-(unsubstituted or substituted)phenoxy-2-pyridinecarboxamides or thiocarboxamides, processes for producing the same, and herbicides” (Kureha Kagaku Kogyo Kabushiki Kaisha, priority 1995, dated 2002).

What was measured:
Experiment in all cases: Herbicidal effect by foliage and soil treatment
Type in all cases: in vivo
Details in all cases: 10 g ai/10a, evaluated after 14 days
[1] = test system: black nightshade (Solanum nigrum)
Method in brief: (§1)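 Read-out: rated growth inhibition relative to non-treated plants 14 days after spraying. Young plants (cotyledon to two leaves) received a foliage-and-soil spray of compound in aqueous Tween 20 at a controlled rate, greenhouse at 19–25 °C.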

[2] = test system: cleavers (Galium aparine)
Method in brief: as §1

[3] = test system: common blackjack (Bidens pilosa)
Method in brief: as §1

[4] = test system: common chickweed (Stellaria media)
Method in brief: as §1

[5] = test system: field bindweed (Convolvulus arvensis)
Method in brief: as §1

[6] = test system: ivyleafspeedwell (Veronica hederaefolia)
Method in brief: as §1

[7] = test system: kediock (Sinapis arvensis)
Method in brief: as §1

[8] = test system: redroot pigweed (Amaranthus retroflexus)
Method in brief: as §1

[9] = test system: sicklepod (Cassia obtusifolia)
Method in brief: as §1

[10] = test system: velvetleaf (Abutilon theophrasti)
Method in brief: as §1

[11] = test system: wild chamomile (Matricaria chamomilla)
Method in brief: as §1

## COc1cc(Oc2cccc(C(F)(F)F)c2)nc(C(=O)NCC(F)(F)F)c1 [Compound I-82]
[1]
  herbicidal activity rating, SN (Solanum nigrum): 5 (percentage of weeds killed was not less than 80%)
[2]
  herbicidal activity rating, GA (Galium aparine): 5 (percentage of weeds killed was not less than 80%)
[3]
  herbicidal activity rating, BP (Bidens pilosa): 4 (percentage of weeds killed was not less than 60% and less than 80%)
[4]
  herbicidal activity rating, SM (Stellaria media): 5 (percentage of weeds killed was not less than 80%)
[5]
  herbicidal activity rating, CA (Convolvulus arvensis): 5 (percentage of weeds killed was not less than 80%)
[6]
  herbicidal activity rating, VH (Veronica hederaefolia): 5 (percentage of weeds killed was not less than 80%)
[7]
  herbicidal activity rating, SA (Sinapis arvensis): 5 (percentage of weeds killed was not less than 80%)
[8]
  herbicidal activity rating, AR (Amaranthus retroflexus): 5 (percentage of weeds killed was not less than 80%)
[9]
  herbicidal activity rating, CO (Cassia obtusifolia): 5 (percentage of weeds killed was not less than 80%)
[10]
  herbicidal activity rating, AT (Abutilon theophrasti): 5 (percentage of weeds killed was not less than 80%)
[11]
  herbicidal activity rating, MC (Matricaria chamomilla): 5 (percentage of weeds killed was not less than 80%)

## COc1cc(Oc2cccc(C(F)(F)F)c2)nc(C(=O)NOCCF)c1 [Compound I-102]
[1]
  herbicidal activity rating, SN (Solanum nigrum): 5 (percentage of weeds killed was not less than 80%)
[2]
  herbicidal activity rating, GA (Galium aparine): 5 (percentage of weeds killed was not less than 80%)
[3]
  herbicidal activity rating, BP (Bidens pilosa): 5 (percentage of weeds killed was not less than 80%)
[4]
  herbicidal activity rating, SM (Stellaria media): 4 (percentage of weeds killed was not less than 60% and less than 80%)
[5]
  herbicidal activity rating, CA (Convolvulus arvensis): 4 (percentage of weeds killed was not less than 60% and less than 80%)
[6]
  herbicidal activity rating, VH (Veronica hederaefolia): 5 (percentage of weeds killed was not less than 80%)
[7]
  herbicidal activity rating, SA (Sinapis arvensis): 5 (percentage of weeds killed was not less than 80%)
[8]
  herbicidal activity rating, AR (Amaranthus retroflexus): 5 (percentage of weeds killed was not less than 80%)
[9]
  herbicidal activity rating, CO (Cassia obtusifolia): 5 (percentage of weeds killed was not less than 80%)
[10]
  herbicidal activity rating, AT (Abutilon theophrasti): 4 (percentage of weeds killed was not less than 60% and less than 80%)
[11]
  herbicidal activity rating, MC (Matricaria chamomilla): 3 (percentage of weeds killed was not less than 40% and less than 60%)

## CCOc1cc(Oc2cccc(C(F)(F)F)c2)nc(C(=O)NC(C)C)c1 [Compound I-59]
[1]
  herbicidal activity rating, SN (Solanum nigrum): 5 (percentage of weeds killed was not less than 80%)
[2]
  herbicidal activity rating, GA (Galium aparine): 5 (percentage of weeds killed was not less than 80%)
[3]
  herbicidal activity rating, BP (Bidens pilosa): 3 (percentage of weeds killed was not less than 40% and less than 60%)
[4]
  herbicidal activity rating, SM (Stellaria media): 5 (percentage of weeds killed was not less than 80%)
[5]
  herbicidal activity rating, CA (Convolvulus arvensis): 4 (percentage of weeds killed was not less than 60% and less than 80%)
[6]
  herbicidal activity rating, VH (Veronica hederaefolia): 5 (percentage of weeds killed was not less than 80%)
[7]
  herbicidal activity rating, SA (Sinapis arvensis): 5 (percentage of weeds killed was not less than 80%)
[8]
  herbicidal activity rating, AR (Amaranthus retroflexus): 5 (percentage of weeds killed was not less than 80%)
[9]
  herbicidal activity rating, CO (Cassia obtusifolia): 5 (percentage of weeds killed was not less than 80%)
[10]
  herbicidal activity rating, AT (Abutilon theophrasti): 4 (percentage of weeds killed was not less than 60% and less than 80%)
[11]
  herbicidal activity rating, MC (Matricaria chamomilla): 4 (percentage of weeds killed was not less than 60% and less than 80%)

## COCCNC(=O)c1cc(OC)cc(Oc2cccc(C(F)(F)F)c2)n1 [Compound I-61]
[1]
  herbicidal activity rating, SN (Solanum nigrum): 5 (percentage of weeds killed was not less than 80%)
[2]
  herbicidal activity rating, GA (Galium aparine): 5 (percentage of weeds killed was not less than 80%)
[3]
  herbicidal activity rating, BP (Bidens pilosa): 2 (percentage of weeds killed was not less than 20% and less than 40%)
[4]
  herbicidal activity rating, SM (Stellaria media): 5 (percentage of weeds killed was not less than 80%)
[5]
  herbicidal activity rating, CA (Convolvulus arvensis): 3 (percentage of weeds killed was not less than 40% and less than 60%)
[6]
  herbicidal activity rating, VH (Veronica hederaefolia): 5 (percentage of weeds killed was not less than 80%)
[7]
  herbicidal activity rating, SA (Sinapis arvensis): 5 (percentage of weeds killed was not less than 80%)
[8]
  herbicidal activity rating, AR (Amaranthus retroflexus): 5 (percentage of weeds killed was not less than 80%)
[9]
  herbicidal activity rating, CO (Cassia obtusifolia): 5 (percentage of weeds killed was not less than 80%)
[10]
  herbicidal activity rating, AT (Abutilon theophrasti): 4 (percentage of weeds killed was not less than 60% and less than 80%)
[11]
  herbicidal activity rating, MC (Matricaria chamomilla): 5 (percentage of weeds killed was not less than 80%)

## C=CCONC(=O)c1cc(OC)cc(Oc2cccc(C(F)(F)F)c2)n1 [Compound I-100]
[1]
  herbicidal activity rating, SN (Solanum nigrum): 5 (percentage of weeds killed was not less than 80%)
[2]
  herbicidal activity rating, GA (Galium aparine): 5 (percentage of weeds killed was not less than 80%)
[3]
  herbicidal activity rating, BP (Bidens pilosa): 4 (percentage of weeds killed was not less than 60% and less than 80%)
[4]
  herbicidal activity rating, SM (Stellaria media): 4 (percentage of weeds killed was not less than 60% and less than 80%)
[5]
  herbicidal activity rating, CA (Convolvulus arvensis): 4 (percentage of weeds killed was not less than 60% and less than 80%)
[6]
  herbicidal activity rating, VH (Veronica hederaefolia): 5 (percentage of weeds killed was not less than 80%)
[7]
  herbicidal activity rating, SA (Sinapis arvensis): 5 (percentage of weeds killed was not less than 80%)
[8]
  herbicidal activity rating, AR (Amaranthus retroflexus): 5 (percentage of weeds killed was not less than 80%)
[9]
  herbicidal activity rating, CO (Cassia obtusifolia): 5 (percentage of weeds killed was not less than 80%)
[10]
  herbicidal activity rating, AT (Abutilon theophrasti): 5 (percentage of weeds killed was not less than 80%)
[11]
  herbicidal activity rating, MC (Matricaria chamomilla): 4 (percentage of weeds killed was not less than 60% and less than 80%)

## COc1cc(Oc2cccc(C(F)(F)F)c2)nc(C(=O)NCCCS(C)(=O)=O)c1 [Compound I-77]
[1]
  herbicidal activity rating, SN (Solanum nigrum): 5 (percentage of weeds killed was not less than 80%)
[2]
  herbicidal activity rating, GA (Galium aparine): 5 (percentage of weeds killed was not less than 80%)
[3]
  herbicidal activity rating, BP (Bidens pilosa): 4 (percentage of weeds killed was not less than 60% and less than 80%)
[4]
  herbicidal activity rating, SM (Stellaria media): 4 (percentage of weeds killed was not less than 60% and less than 80%)
[5]
  herbicidal activity rating, CA (Convolvulus arvensis): 4 (percentage of weeds killed was not less than 60% and less than 80%)
[6]
  herbicidal activity rating, VH (Veronica hederaefolia): 5 (percentage of weeds killed was not less than 80%)
[7]
  herbicidal activity rating, SA (Sinapis arvensis): 5 (percentage of weeds killed was not less than 80%)
[8]
  herbicidal activity rating, AR (Amaranthus retroflexus): 5 (percentage of weeds killed was not less than 80%)
[9]
  herbicidal activity rating, CO (Cassia obtusifolia): 5 (percentage of weeds killed was not less than 80%)
[10]
  herbicidal activity rating, AT (Abutilon theophrasti): 5 (percentage of weeds killed was not less than 80%)
[11]
  herbicidal activity rating, MC (Matricaria chamomilla): 3 (percentage of weeds killed was not less than 40% and less than 60%)
